Patent US7776791B2, “N-heterocyclyl phenyl-substituted cyclic ketoenols” (Bayer CropScience AG, priority 2003, dated 2010)

What was measured:
Format in all cases: in vivo
[1] = test system: monocotyledonous and dicotyledonous weed and crop plants; test: Herbicidal post-emergence action (K); settings: greenhouse, 320 g of a.i./ha, EC formulation
Description: K. Herbicidal Post-Emergence Action
Seeds of monocotyledonous and dicotyledonous weed and crop plants are placed into sandy loam in wood fibre pots, covered with soil and cultivated in a greenhouse under good growth conditions. 2-3 weeks after sowing, the test plants are treated at the one-leaf stage. The test compounds, formulated as wettable powders (WP) or emulsifiable concentrates (EC), are, in various dosages with a water application rate of 600 l/ha (converted), with 0.2% of wetting agent added, sprayed onto the green parts of the plants. After the test plants were kept in a greenhouse under optimum growth conditions for about 3 weeks, the effect of the preparations is rated visually in comparison to untreated controls (herbicidal effect in percent (%): 100% effect=the plants have died, 0% effect=like controlled plants).

[2] = test system: caterpillars of the army worm (Spodoptera frugiperda); test: Spodoptera frugiperda test; settings: 100 ppm active compound, leaf dip
Description: Solvent: 7 parts by weight of dimethylformamide
Emulsifier: 2 parts by weight of alkylaryl polyglycol ether
To produce a suitable preparation of active compound, 1 part by weight of active compound is mixed with the stated amounts of solvent and emulsifier, and the concentrate is diluted with emulsifier-containing water to the desired concentration.
Cabbage leaves (Brassica oleracea) are treated by being dipped into the preparation of active compound of the desired concentration and are populated with caterpillars of the army worm (Spodoptera frugiperda) while the leaves are still moist.
After the desired period of time, the kill in % is determined. 100% means that all caterpillars have been killed; 0% means that none of the caterpillars have been killed.

[3] = test system: larvae of the mustard beetle (Phaedon cochleariae); test: Phaedon larvae test; settings: 500 ppm active compound, leaf dip
Description: Solvent: 7 parts by weight of dimethylformamide Emulsifier: 2 parts by weight of alkylaryl polyglycol ether To produce a suitable preparation of active compound, 1 part by weight of active compound is mixed with the stated amounts of solvent and emulsifier, and the concentrate is diluted with emulsifier-containing water to the desired concentration. Cabbage leaves (Brassica oleracea) are treated by being dipped into the preparation of active compound of the desired concentration and are populated with larvae of the mustard beetle (Phaedon cochleariae) while the leaves are still moist.

Row | SMILES | herbicidal effect in percent, Echinochloa ([1]; Echinochloa) [%] | herbicidal effect in percent, Setaria ([1]; Setaria) [%] | herbicidal effect in percent, Sorghum ([1]; Sorghum) [%] | herbicidal effect in percent, Sugar beet ([1]; Sugar beet) [%] | Kill rate in % after 7 d [2] [%] | Kill rate in % after 7 d [3] [%]
1 | COC1CCC2(CC1)NC(=O)C(c1cc(-n3cc(Cl)cn3)ccc1C)=C2O (stereo not shown) [Ex. I-1-a-1] | 100 | 100 | 90 | 0 | 85 | –
2 | Cc1ccc(-n2cc(Cl)cn2)cc1C1=C(O)C2(CCCCC2)CC1=O [Ex. I-6-a-1] | – | – | – | – | – | 90
3 | Cc1ccc(-n2cc(Cl)cn2)cc1C1=C(O)CC(C)(C)CC1=O [Ex. I-7-a-1] | – | – | – | – | – | 100
